Earlier results on two compounds are cited in patent publication US8912192B2, “Extended release preparation” (Taisho Pharmaceutical Co., Ltd, priority 2010, dated 2014).

Structures are written as SMILES. Where a name gives a salt, the structure may show the parent alone. Read-outs that look alike come from different tables or passages of the source.

Data set [1] concerns phosphodiesterase III enzymes. Conditions: compound A or a pharmaceutically acceptable salt thereof.
The conditions of data set [2]: preparation containing a pharmaceutically acceptable salt of compound A, oral, dogs, fasting state.
For data set [3] the following is noted: pharmaceutically acceptable salt of compound A.

Turning to `CC(N)C(O)c1ccccc1` (stereo not drawn) [phenylpropanolamine hydrochloride, reference compound], the half-life period (in vivo) is 4 h.

With `O=c1[nH]nc(OCCCc2ccc(Cl)cc2)c(NCc2cccnc2)c1Br` [compound A, 4-bromo-6-[3-(4-chlorophenyl)propoxy]-5-(3-pyridylmethylamino)-3(2H)-pyridazinone], the “inhibitory effect against phosphodiesterase III enzymes” value in data set [1] is “has an inhibitory effect against phosphodiesterase III enzymes”. Further, the “half-life period in blood plasma” value (blood plasma) is reported as “about 1.5 hours”. Further, in data set [2], the bioavailability result is given as “about 10%”. Further, the values for the solubility in water entry in data set [3] (around neutral pH range similar to enteric environment) and in data set [3] (pH range of about 4.0 or higher) were “quite poorly soluble” and “decreases its solubility in water”, respectively.
